Experiments:
Assay type in all cases: in vivo
[1] = system: kochia (Kochia scoparia); assay: Test A preemergence, kochia; conditions: 0 to 100 scale, 0 is no effect, 100 is complete control
How it was run: (§1)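 Seeds sown in loam–sand blend received a directed soil spray of test chemical in non-phytotoxic solvent with surfactant (preemergence); postemergence plants at 2–10 cm, one- to two-leaf stage, were sprayed with the same formulation. Injury rated visually versus untreated controls after ~10 d in greenhouse, 0–100 scale.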

[2] = system: ragweed (common ragweed, Ambrosia elatior); assay: Test A postemergence, ragweed; conditions: 0 to 100 scale, 0 no effect, 100 complete control
How it was run: as §1

[3] = system: corn (Zea mays); assay: Test A postemergence, corn; conditions: 0 to 100 scale, 0 no effect, 100 complete control
How it was run: as §1

[4] = system: ducksalad (Heteranthera limosa); assay: Test B flooded paddy test, ducksalad; conditions: Flood, 250 g ai/ha, applied to paddy water, 2-leaf stage, visual evaluation after 13 to 15 d
How it was run: (§2)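 Each response is a visual 0–100 rating made against untreated controls, where 0 is no effect and 100 is complete control; a dash marks no result. Compound was dosed into 3 cm paddy water over 2-leaf plants, assessed after 13 to 15 d.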

[5] = system: galium (catchweed bedstraw, Galium aparine); assay: Test A postemergence, galium; conditions: 0 to 100 scale, 0 no effect, 100 complete control
How it was run: as §1

[6] = system: pigweed (Amaranthus retroflexus); assay: Test A postemergence, pigweed; conditions: 0 to 100 scale, 0 no effect, 100 complete control
How it was run: as §1

[7] = system: kochia (Kochia scoparia); assay: Test A postemergence, kochia; conditions: 0 to 100 scale, 0 no effect, 100 complete control
How it was run: as §1

[8] = system: barnyardgrass (Echinochloa crus-galli); assay: Test A postemergence, barnyardgrass; conditions: 0 to 100 scale, 0 no effect, 100 complete control
How it was run: as §1

[9] = system: pigweed (Amaranthus retroflexus); assay: Test A preemergence, pigweed; conditions: 0 to 100 scale, 0 is no effect, 100 is complete control
How it was run: as §1

[10] = system: barnyardgrass (Echinochloa crus-galli); assay: Test A preemergence, barnyardgrass; conditions: 0 to 100 scale, 0 is no effect, 100 is complete control
How it was run: as §1

[11] = system: rice (Oryza sativa); assay: Test B flooded paddy test, rice; conditions: Flood, 250 g ai/ha, applied to paddy water, 2-leaf stage, visual evaluation after 13 to 15 d
How it was run: as §2

[12] = system: ryegrass, Italian (Lolium multiflorum); assay: Test A preemergence, Italian ryegrass; conditions: 0 to 100 scale, 0 is no effect, 100 is complete control
How it was run: as §1

[13] = system: barnyardgrass (Echinochloa crus-galli); assay: Test B flooded paddy test, barnyardgrass; conditions: Flood, 250 g ai/ha, applied to paddy water, 2-leaf stage, visual evaluation after 13 to 15 d
How it was run: as §2

[14] = system: ragweed (common ragweed, Ambrosia elatior); assay: Test A preemergence, ragweed; conditions: 0 to 100 scale, 0 is no effect, 100 is complete control
How it was run: as §1

[15] = system: ryegrass, Italian (Lolium multiflorum); assay: Test A postemergence, Italian ryegrass; conditions: 0 to 100 scale, 0 no effect, 100 complete control
How it was run: as §1

[16] = system: foxtail, giant (Setaria faberii); assay: Test A preemergence, giant foxtail; conditions: 0 to 100 scale, 0 is no effect, 100 is complete control
How it was run: as §1

[17] = system: sedge, umbrella (small-flower umbrella sedge, Cyperus difformis); assay: Test B flooded paddy test, umbrella sedge; conditions: Flood, 250 g ai/ha, applied to paddy water, 2-leaf stage, visual evaluation after 13 to 15 d
How it was run: as §2

[18] = system: foxtail, giant (Setaria faberii); assay: Test A postemergence, giant foxtail; conditions: 0 to 100 scale, 0 no effect, 100 complete control
How it was run: as §1

[19] = system: wheat (Triticum aestivum); assay: Test A postemergence, wheat; conditions: 0 to 100 scale, 0 no effect, 100 complete control
How it was run: as §1

[20] = system: blackgrass (Alopecurus myosuroides); assay: Test A postemergence, blackgrass; conditions: 0 to 100 scale, 0 no effect, 100 complete control
How it was run: as §1

Structure (SMILES) | Kochia plant response rating ([1]; 125 g ai/ha) | Kochia plant response rating ([1]; 500 g ai/ha) | Plant response rating, Ragweed ([2]; 125 g ai/ha) | Plant response rating, Ragweed ([2]; 500 g ai/ha) | Plant response rating, Corn ([3]; 125 g ai/ha) | Plant response rating, Corn ([3]; 500 g ai/ha) | Plant response rating, Ducksalad (0 to 100 scale, 0 is no effect, 100 is complete control) [4] | Plant response rating, Galium ([5]; 125 g ai/ha) | Plant response rating, Galium ([5]; 500 g ai/ha) | Plant response rating, Pigweed ([6]; 125 g ai/ha) | Plant response rating, Pigweed ([6]; 500 g ai/ha) | Plant response rating, Kochia ([7]; 125 g ai/ha) | Plant response rating, Kochia ([7]; 500 g ai/ha) | Plant response rating, Barnyardgrass ([8]; 125 g ai/ha) | Plant response rating, Barnyardgrass ([8]; 500 g ai/ha) | Pigweed plant response rating ([9]; 125 g ai/ha) | Pigweed plant response rating ([9]; 500 g ai/ha) | Barnyardgrass plant response rating ([10]; 125 g ai/ha) | Barnyardgrass plant response rating ([10]; 500 g ai/ha) | Plant response rating, Rice (0 to 100 scale, 0 is no effect, 100 is complete control) [11] | further results
C[C@@H](Nc1ncc(C#N)c(N)n1)c1cc2ccccc2s1 [Compound 104] | 30 | 90 | 20 | 80 | 0 | 0 | 0 | 40 | 80 | 80 | 100 | 10 | 60 | 0 | 20 | 50 | 80 | 0 | 0 | 0 | Ryegrass, Italian plant response rating ([12]; 125 g ai/ha): 30; Ryegrass, Italian plant response rating ([12]; 500 g ai/ha): 60; Plant response rating, Barnyardgrass (0 to 100 scale, 0 is no effect, 100 is complete control) [13]: 0; Ragweed plant response rating ([14]; 125 g ai/ha): 60; Ragweed plant response rating ([14]; 500 g ai/ha): 100; Plant response rating, Ryegrass, Italian ([15]; 125 g ai/ha): 0; Plant response rating, Ryegrass, Italian ([15]; 500 g ai/ha): 70; Foxtail, Giant plant response rating ([16]; 125 g ai/ha): 20; Foxtail, Giant plant response rating ([16]; 500 g ai/ha): 60; Plant response rating, Sedge, Umbrella (0 to 100 scale, 0 is no effect, 100 is complete control) [17]: 0; Plant response rating, Foxtail, Giant ([18]; 125 g ai/ha): 0; Plant response rating, Foxtail, Giant ([18]; 500 g ai/ha): 20; Plant response rating, Wheat ([19]; 125 g ai/ha): 0; Plant response rating, Wheat ([19]; 500 g ai/ha): 0; Plant response rating, Blackgrass ([20]; 125 g ai/ha): 0; Plant response rating, Blackgrass ([20]; 500 g ai/ha): 20
Cc1nc(NC(C)c2cc3ccccc3s2)nc(N)c1C(F)(F)F (stereo not drawn) [Compound 105] | 90 | 100 | 70 | 100 | 0 | 0 | 0 | 90 | 90 | 0 | 60 | 80 | 100 | 30 | 60 | 100 | 100 | 40 | 60 | 0 | Ryegrass, Italian plant response rating ([12]; 125 g ai/ha): 20; Ryegrass, Italian plant response rating ([12]; 500 g ai/ha): 90; Plant response rating, Barnyardgrass (0 to 100 scale, 0 is no effect, 100 is complete control) [13]: 0; Ragweed plant response rating ([14]; 125 g ai/ha): 100; Ragweed plant response rating ([14]; 500 g ai/ha): 100; Plant response rating, Ryegrass, Italian ([15]; 125 g ai/ha): 100; Plant response rating, Ryegrass, Italian ([15]; 500 g ai/ha): 100; Foxtail, Giant plant response rating ([16]; 125 g ai/ha): 40; Foxtail, Giant plant response rating ([16]; 500 g ai/ha): 100; Plant response rating, Sedge, Umbrella (0 to 100 scale, 0 is no effect, 100 is complete control) [17]: 0; Plant response rating, Foxtail, Giant ([18]; 125 g ai/ha): 0; Plant response rating, Foxtail, Giant ([18]; 500 g ai/ha): 60; Plant response rating, Wheat ([19]; 125 g ai/ha): 0; Plant response rating, Wheat ([19]; 500 g ai/ha): 0; Plant response rating, Blackgrass ([20]; 125 g ai/ha): 0; Plant response rating, Blackgrass ([20]; 500 g ai/ha): 0
Cc1nc(NC(C)c2coc3ccccc23)nc(N)c1C(F)(F)F (stereo not drawn) [Compound 106] | 80 | 90 | 20 | 100 | 0 | 0 | 0 | 70 | 80 | 70 | 100 | 80 | 90 | 0 | 30 | 30 | 100 | 0 | 0 | 0 | Ryegrass, Italian plant response rating ([12]; 125 g ai/ha): 0; Ryegrass, Italian plant response rating ([12]; 500 g ai/ha): 30; Plant response rating, Barnyardgrass (0 to 100 scale, 0 is no effect, 100 is complete control) [13]: 0; Ragweed plant response rating ([14]; 125 g ai/ha): 60; Ragweed plant response rating ([14]; 500 g ai/ha): 100; Plant response rating, Ryegrass, Italian ([15]; 125 g ai/ha): 0; Plant response rating, Ryegrass, Italian ([15]; 500 g ai/ha): 0; Foxtail, Giant plant response rating ([16]; 125 g ai/ha): 0; Foxtail, Giant plant response rating ([16]; 500 g ai/ha): 50; Plant response rating, Sedge, Umbrella (0 to 100 scale, 0 is no effect, 100 is complete control) [17]: 0; Plant response rating, Foxtail, Giant ([18]; 125 g ai/ha): 0; Plant response rating, Foxtail, Giant ([18]; 500 g ai/ha): 0; Plant response rating, Wheat ([19]; 125 g ai/ha): 0; Plant response rating, Wheat ([19]; 500 g ai/ha): 0; Plant response rating, Blackgrass ([20]; 125 g ai/ha): 0; Plant response rating, Blackgrass ([20]; 500 g ai/ha): 0
